The record followed here is PubChem BioAssay AID463206 (Broad Institute, 2010).

Structures are written as SMILES. Calls of active or inactive are those of the source.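 The calls were made as follows: active = caspase luminescence falls with dose and the half-maximal concentration AC50 from the fitted curve is at or below a set limit; inconclusive = flat fit at 30 to 70% signal loss, or invalid fit; inactive = AC50 above the limit, or signal rises instead.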

A word on the AC50: it is the concentration at which the activity in the assay is half-maximal.

In the assay the test system is INS-1E cytokine-induced caspase-3/7, Caspase-Glo luminescence, 48 h. Description: inhibitors of cytokine-induced caspase-3/7 activity, dose response, orthogonal assay for beta-cell apoptosis protection project, INS-1E rat cells, luminescence (AID 463206).
As to `CCOC(=O)C(C)/C(C)=N/NC(=O)c1cc2ccccc2cc1O` (stereo not given), the AC50 is > 26 µM (inactive).

`Cc1ccc(C)n1-c1ccc(C(=O)Nc2ccccc2)cc1`: the AC50 was > 26 µM (inactive). To `CCCCC[n+]1cccc2c3ccccc3ccc21` belongs > 26 µM (inactive). To `CC1CC(C)CN(S(=O)(=O)c2ccc(C(=O)NCCCn3ccnc3)cc2)C1` (stereo not given) belongs > 26 µM (inactive); to `CC(=O)NC(c1ccc(C(C)C)cc1)c1ccc2cccnc2c1O` (stereo not given), > 26 µM (inactive).

For `CCCC(=O)NC(c1cccs1)c1cc(Cl)c2cccnc2c1O` (stereo not given), the AC50 was > 26 µM (inactive). Next, `COc1ccc(C(=O)NN/C(C)=C/C(=O)C(F)(F)C(F)(F)C(F)(F)F)cc1`: > 26 µM (inactive); `Cc1nc2ccccc2n1Cc1ccc(Br)cc1`: > 26 µM (inactive). Next, `NNc1nc(-c2ccccc2)cc(-c2ccccc2O)n1`: > 26 µM (inactive). Take `COc1ccccc1NC(=O)c1nc(S(=O)(=O)Cc2ccccc2)ncc1Cl`: the AC50 was > 26 µM (inactive). Next, `O=C(Nc1nc(-c2ccccn2)cs1)Nc1ccc(F)cc1F`: > 26 µM (inactive); `C/C(=N\NC(=O)c1nnn(-c2nonc2N)c1-c1ccccc1)c1ccccc1O`: > 26 µM (inactive); `Cc1nc(C(=O)NNC(=O)c2c(-c3c(Cl)cccc3Cl)noc2C)cs1`: > 26 µM (inactive). To `NC1=C(Br)C(=O)c2ccccc2C1=O` belongs > 26 µM (inactive); to `Oc1c(Br)cc(Br)cc1/C=N/NC(=S)N[C@H]1CC2C=CC1C2` (stereo not given in full), > 26 µM (inactive); to `c1ccc2c3c([nH]c2c1)C1(CCNCC1)NCC3`, > 26 µM (inactive). For `COc1ccc2c(c1)c(/C=N/Nc1nc3ccccc3[nH]1)c(C)n2C`, the AC50 was > 26 µM (inactive). To `Cc1ccc(NC(=O)COc2ccc(N(C)C(=O)C(C)(C)C)cc2)cc1S(=O)(=O)N1CCCCC1` belongs > 26 µM (inactive).

With `COc1ccc(CC(=O)Nc2nc(-c3ccc(F)c(F)c3)cs2)cc1OC`, the AC50 is 26.5 µM. Next, `CC(C)(C)C(=O)NC(=S)NNC(=O)c1ccc(-c2ccccc2)cc1`: > 26 µM (inactive); `CC1CCC(C(C)C)C(OC(=O)C[n+]2cc(-c3ccc(Cl)cc3)n3c2CCCCC3)C1` (stereo not given): > 26 µM (inactive). To `S=C(NCc1ccc(Cl)cc1)NC12CC3CC(CC(C3)C1)C2` belongs > 26 µM (inactive); to `O=C(N/N=C/c1cc(Cl)ccc1O)c1ccccc1Br`, > 26 µM (inactive).

Regarding `CCN(CC)c1ccc2nc3ccccc3[n+](CC)c2c1`, the AC50 was > 26 µM (inactive). Next, `Cn1nc(-c2ccccn2)nc2c(=O)n(C)c(=O)nc1-2`: > 26 µM (inactive).

As to `CCc1ccc(NC(=O)CSc2ccc(-c3ccccn3)nn2)cc1`, the AC50 was > 26 µM (inactive).

On to `COc1ccc(CN(C)C(=O)c2ccc(NS(=O)(=O)c3ccc(F)cc3)cc2)c(OC)c1OC`, for which the AC50 was > 26 µM (inactive). Next, `CCOC(=O)CC1CCCCN1C(=O)c1cc(COc2cccc3cnccc23)on1` (stereo not given): > 26 µM (inactive); `CCOC(=O)c1c(C)oc2c1C(=O)c1ccccc1C2=O`: > 26 µM (inactive).

As for `O=C(NCc1ccccc1)C1=C[C@H](c2csc3ccccc23)C[C@H](OCCCCO)O1`, the AC50 is > 26 µM (inactive).

Take `CC(=O)c1ccc(NC(=S)NCc2cccnc2)cc1`: the AC50 was > 26 µM (inactive).

Turning to `COc1ccc(OC)c2[nH]c(C(=O)N/N=C/c3ccccc3O)cc12`, the AC50 was > 26 µM (inactive). On to `O=C(N/N=C/c1ccccc1O)C1CC(=O)N(c2ccc(Cl)cc2)C1` (stereo not given), for which the AC50 is > 26 µM (inactive). Next, `CN1CCN(c2ccc(CNS(=O)(=O)Cc3cccc(C(F)(F)F)c3)cc2)CC1`: > 26 µM (inactive); `Cn1nnnc1N=N/C(=N/Nc1ccccc1)c1ccccc1`: > 12 µM (inactive).
